Assays:
[1] = Cytotoxicity against mouse BV2 cells assessed as reduction in viability by crystal violet staining method; conditions: BV-2
Toll-like receptor 4 = target: T1, Toll-like receptor 4 (Mus musculus, UniProt Q9QUK6)
T1 sequence (Q9QUK6 whole entry): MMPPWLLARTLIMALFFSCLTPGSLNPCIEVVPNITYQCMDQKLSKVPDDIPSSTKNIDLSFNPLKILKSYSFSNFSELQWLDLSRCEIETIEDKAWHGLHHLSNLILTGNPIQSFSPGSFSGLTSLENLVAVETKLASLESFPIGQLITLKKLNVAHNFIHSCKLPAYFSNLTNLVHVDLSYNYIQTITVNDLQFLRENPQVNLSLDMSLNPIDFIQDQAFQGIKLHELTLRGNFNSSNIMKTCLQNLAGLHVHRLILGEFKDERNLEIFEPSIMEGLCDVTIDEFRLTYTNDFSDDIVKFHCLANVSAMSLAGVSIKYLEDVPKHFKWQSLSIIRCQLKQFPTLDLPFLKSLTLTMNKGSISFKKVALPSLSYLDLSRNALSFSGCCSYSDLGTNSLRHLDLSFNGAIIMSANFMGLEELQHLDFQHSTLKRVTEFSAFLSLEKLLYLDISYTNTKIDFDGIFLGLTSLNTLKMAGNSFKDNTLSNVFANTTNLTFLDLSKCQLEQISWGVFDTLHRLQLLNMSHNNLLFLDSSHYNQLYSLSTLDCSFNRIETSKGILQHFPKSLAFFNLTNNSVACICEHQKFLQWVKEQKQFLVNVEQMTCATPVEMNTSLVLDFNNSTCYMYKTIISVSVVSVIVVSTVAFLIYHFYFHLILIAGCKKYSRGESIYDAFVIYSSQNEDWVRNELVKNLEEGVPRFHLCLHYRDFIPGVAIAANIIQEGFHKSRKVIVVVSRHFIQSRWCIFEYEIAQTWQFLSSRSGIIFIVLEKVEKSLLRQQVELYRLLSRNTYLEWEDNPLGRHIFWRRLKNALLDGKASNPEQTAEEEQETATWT
Description: Antagonist activity against TLR4 in mouse BV2 cells assessed as inhibition of LPS-induced nitric oxide production incubated for 24 hrs by 2,3-diaminonaphthalene dye based assay

Row | Compound | IC50 [1] | IC50 (Toll-like receptor 4)
1 | O=C1CC[C@]2(O)[C@@H]3Cc4ccc(O)c5c4[C@]2(CCN3CC2CC2)[C@@H]1O5 | > 400 µM | 106 µM
2 | Oc1ccc2c3c1O[C@@H]1[C@H](O)CC[C@]4(O)[C@H](C2)N(CC2CC2)CC[C@@]314 | > 400 µM | 144 µM
3 | O=C1CC[C@]2(O)[C@@H]3Cc4ccc(O)c5c4[C@]2(CCN3CCc2ccccc2)[C@@H]1O5 | 141 µM | 1.4 µM
4 | O=C1CC[C@]2(O)[C@@H]3Cc4ccc(O)c5c4[C@]2(CCN3CCCCCc2ccccc2)[C@@H]1O5 | 26.8 µM | 1.7 µM
5 | O=C1CC[C@]2(O)CN(CC3CC3)CC[C@]23c2cccc(O)c2O[C@H]13 | > 400 µM | 76.2 µM
6 | CCCCCCN1CC[C@@]23CCCC[C@]2(O)[C@@H]1Cc1ccc(O)cc13 | – | 5.2 µM
7 | O=C1CC[C@]2(O)[C@@H]3Cc4ccc(O)cc4[C@]2(CCN3CC2CC2)C1 | > 400 µM | 118 µM
8 | CCCCCN1CC[C@@]23c4c5ccc(O)c4O[C@@H]2C(=O)CC[C@]3(O)[C@@H]1C5 | > 200 µM | 7.5 µM
9 | Oc1ccc2c(c1)[C@]13CCCC[C@]1(O)[C@H](C2)N(CC1CC1)CC3 | 366 µM | 48.9 µM
10 | O=C1CC[C@]2(O)[C@@H]3Cc4ccc(O)c5c4[C@]2(CCN3CCCc2ccccc2)[C@@H]1O5 | 69.3 µM | 1.4 µM
11 | COc1ccc2c3c1O[C@@H]1C(=O)CC[C@]4(O)C(C2)N(CCc2ccccc2)CC[C@@]314 | – | 5.7 µM
12 | CCCCCCCCN1CC[C@@]23c4c5ccc(O)c4O[C@@H]2C(=O)CC[C@]3(O)[C@@H]1C5 | – | 1.7 µM
13 | CCCCCCN1CC[C@@]23C=CCC[C@]2(O)[C@@H]1Cc1ccc(O)cc13 | 155 µM | 22.5 µM
14 | CCCCN1CC[C@@]23c4c5ccc(O)c4O[C@@H]2C(=O)CC[C@]3(O)[C@@H]1C5 | > 200 µM | 24.8 µM
15 | Oc1ccc2c3c1O[C@@H]1[C@@H](O)CC[C@]4(O)[C@H](C2)N(CC2CC2)CC[C@@]314 | > 400 µM | 243 µM
16 | O=C1CC[C@]2(O)[C@@H]3Cc4ccc(O)c5c4[C@]2(CCN3CCc2ccccc2F)[C@@H]1O5 | 65.7 µM | 1.8 µM
17 | CCCCCCN1CC[C@@]23c4c5ccc(O)c4O[C@@H]2C(=O)CC[C@]3(O)[C@@H]1C5 | 121 µM | 6.7 µM
18 | CCCCCCCN1CC[C@@]23c4c5ccc(O)c4O[C@@H]2C(=O)CC[C@]3(O)[C@@H]1C5 | 68.5 µM | 3 µM
19 | O=C1CC[C@]2(O)[C@@H]3Cc4ccc(O)c5c4[C@]2(CCN3CCCCc2ccccc2)[C@@H]1O5 | 37.1 µM | 1.2 µM

Source: ChEMBL document CHEMBL3576818, “Structure-Activity Relationships of (+)-Naltrexone-Inspired Toll-like Receptor 4 (TLR4) Antagonists” (J Med Chem, 2015)
